Results: patent publication US9512141B2, “Pyrazine derivatives as CB2 receptor agonists” (Hoffmann-La Roche Inc., priority 2012, dated 2016)

What was measured:
human CB2 receptors = human CB2 receptors (Homo sapiens (Human), UniProt P34972); assay: cAMP assay (functional), CHO cells expressing human CB2 receptors; format: cell-based; settings: functional cAMP assay, CHO cells expressing human CB2; read-out: human CB2 EC50
Description: (§1) CHO cells expressing human CB1 or CB2 receptors are seeded 17-24 hours prior to the experiment 50.000 cells per well in a black 96 well plate with flat clear bottom (Corning Costar #3904) in DMEM (Invitrogen No. 31331), 1×HT supplement, with 10% fetal calf serum and incubated at 5% CO2 and 37° C. in a humidified incubator. The growth medium was exchanged with Krebs Ringer Bicarbonate buffer with 1 mM IBMX and incubated at 30° C. for 30 min. Compounds were added to a final assay volume of 100 μl and incubated for 30 min at 30° C. Using the cAMP-Nano-TRF detection kit the assay (Roche Diagnostics) was stopped by the addition of 50 μl lysis reagent (Tris, NaCl, 1.5% Triton X100, 2.5% NP40, 10% NaN3) and 50 μl detection solutions (20 μM mAb Alexa700-cAMP 1:1, and 48 μM Ruthenium-2-AHA-cAMP) and shaken for 2 h at room temperature. The time-resolved energy transfer is measured by a TRF reader (Evotec Technologies GmbH), equipped with a ND:YAG laser as excitation source. The plate is measured twice with the excitation at 355 nm and at the emission with a delay of 100 ns and a gate of 100 ns, total exposure time 10 s at 730 (bandwidth 30 nm) or 645 nm (bandwidth 75 nm), respectively. The FRET signal is calculated as follows: FRET=T730-Alexa730-P (T645-B645) with P=Ru730-B730/Ru645-B645, where T730 is the test well measured at […], T645 is the test well measured at 645 nm, B730 and B645 are the buffer controls at 730 nm and 645 nm, respectively. cAMP content is determined from the function of a standard curve spanning from 10 μM to 0.13 nM cAMP.
(§2) EC50 values were determined using Activity Base analysis (ID Business Solution, Limited). The EC50 values for a wide range of cannabinoid agonists generated from this assay were in agreement with the values published in the scientific literature.

human CB1 receptors = human CB1 receptors (Homo sapiens (Human), UniProt P21554); assay: cAMP assay (functional), CHO cells expressing human CB1 receptors; format: cell-based; settings: functional cAMP assay, CHO cells expressing human CB1; read-out: human CB1 EC50
Description: as §1, §2

human CB1 receptors, sequence (P21554 whole entry): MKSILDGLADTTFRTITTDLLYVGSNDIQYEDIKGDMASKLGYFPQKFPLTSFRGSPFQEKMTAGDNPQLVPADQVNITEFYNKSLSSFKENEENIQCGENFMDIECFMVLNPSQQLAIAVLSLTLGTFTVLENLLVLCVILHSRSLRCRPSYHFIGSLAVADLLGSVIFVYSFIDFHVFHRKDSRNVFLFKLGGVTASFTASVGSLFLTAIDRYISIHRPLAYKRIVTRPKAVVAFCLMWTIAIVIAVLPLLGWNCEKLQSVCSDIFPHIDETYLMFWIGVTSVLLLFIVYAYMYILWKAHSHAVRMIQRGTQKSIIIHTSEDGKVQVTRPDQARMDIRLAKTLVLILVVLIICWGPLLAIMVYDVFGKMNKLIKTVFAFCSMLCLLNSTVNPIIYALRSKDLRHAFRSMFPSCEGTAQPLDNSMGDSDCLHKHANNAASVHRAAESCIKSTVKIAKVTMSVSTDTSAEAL
human CB2 receptors, sequence (P34972 whole entry): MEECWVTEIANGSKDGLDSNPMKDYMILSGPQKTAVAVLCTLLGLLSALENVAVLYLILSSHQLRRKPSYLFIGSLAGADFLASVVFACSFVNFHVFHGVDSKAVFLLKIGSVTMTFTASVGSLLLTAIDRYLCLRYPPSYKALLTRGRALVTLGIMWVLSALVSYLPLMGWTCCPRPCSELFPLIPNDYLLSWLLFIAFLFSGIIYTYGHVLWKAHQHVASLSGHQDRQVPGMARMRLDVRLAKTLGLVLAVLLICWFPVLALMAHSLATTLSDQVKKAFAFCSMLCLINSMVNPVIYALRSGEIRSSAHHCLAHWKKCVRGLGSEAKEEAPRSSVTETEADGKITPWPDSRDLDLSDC

| SMILES | EC50 (human CB2 receptors) [nM] | EC50 (human CB1 receptors) [nM] |
| --- | --- | --- |
| COC(=O)[C@H]1CCCN1C(=O)c1cnc(N2CC(F)(F)C2)c(OCC2CC2)n1 [Example 22, (R)-1-[6-Cyclopropylmethoxy-5-(3,3-difluoro-azetidin-1-yl)-pyrazine-2-carbonyl]-pyrrolidine-2-carboxylic acid methyl ester] | 252 | > 10000 |
| O=C1CN(C(=O)c2cnc(N3CC(F)(F)C3)c(OCC3CC3)n2)CCO1 [Example 23, 4-[6-Cyclopropylmethoxy-5-(3,3-difluoro-azetidin-1-yl)-pyrazine-2-carbonyl]-morpholin-2-one] | 18.4 | > 10000 |
| CN(C)C(=S)[C@H]1CCCN1C(=O)c1cnc(N2CC(F)(F)C2)c(OCC2CC2)n1 [Example 24, (R)-1-[6-Cyclopropylmethoxy-5-(3,3-difluoro-azetidin-1-yl)-pyrazine-2-carbonyl]-pyrrolidine-2-carbothioic acid dimethylamide] | 333 | > 10000 |
| CC(=O)OC1(C)CCN(C(=O)c2cnc(C3CC3)c(OCC3CC3)n2)C1 (centres unmarked) [Example 25, Acetic acid 1-(5-cyclopropyl-6-cyclopropylmethoxy-pyrazine-2-carbonyl)-3-methyl-pyrrolidin-3-yl ester] | 110 | > 10000 |
| O=C(c1cnc(C2CC2)c(OCC2CC2)n1)N1CC(F)(F)C(F)(F)C1 [Example 26, (5-Cyclopropyl-6-cyclopropylmethoxy-pyrazin-2-yl)-(3,3,4,4-tetrafluoro-pyrrolidin-1-yl)-methanone] | 124 | > 10000 |
| CC(=O)O[C@H]1CCN(C(=O)c2cnc(N3CC(F)(F)C3)c(OCC3CC3)n2)C1 [Example 27, Acetic acid (S)-1-[6-cyclopropylmethoxy-5-(3,3-difluoro-azetidin-1-yl)-pyrazine-2-carbonyl]-pyrrolidin-3-yl ester] | 271 | > 10000 |
| O=C(c1cnc(N2CC(F)(F)C2)c(OCC2CC2)n1)N1CCC2(COC2)C1 [Example 28, [6-Cyclopropylmethoxy-5-(3,3-difluoro-azetidin-1-yl)-pyrazin-2-yl]-(2-oxa-6-aza-spiro[3.4]oct-6-yl)-methanone] | 204 | > 10000 |
| CC(=O)OC1(C)CCN(C(=O)c2cnc(N3CC(F)(F)C3)c(OCC3CC3)n2)C1 (centres unmarked) [Example 29, Acetic acid 1-[6-cyclopropylmethoxy-5-(3,3-difluoro-azetidin-1-yl)-pyrazine-2-carbonyl]-3-methyl-pyrrolidin-3-yl ester] | 8.8 | > 10000 |
| O=C(c1cnc(N2CC(F)(F)C2)c(OCC2CC2)n1)N1CC(F)(F)C(F)(F)C1 [Example 30, [6-Cyclopropylmethoxy-5-(3,3-difluoro-azetidin-1-yl)-pyrazin-2-yl]-(3,3,4,4-tetrafluoro-pyrrolidin-1-yl)-methanone] | 26.3 | > 10000 |
| CN(C(=O)c1cnc(N2CC(F)(F)C2)c(OCC(F)(F)F)n1)C(C)(C)C [Example 31, 5-(3,3-Difluoro-azetidin-1-yl)-6-(2,2,2-trifluoro-ethoxy)-pyrazine-2-carboxylic acid tert-butyl-methyl-amide] | 130 | > 10000 |
| CC1(C)CCCN1C(=O)c1cnc(N2CC(F)(F)C2)c(OCC(F)(F)F)n1 [Example 32, [5-(3,3-Difluoro-azetidin-1-yl)-6-(2,2,2-trifluoro-ethoxy)-pyrazin-2-yl]-(2,2-dimethyl-pyrrolidin-1-yl)-methanone] | 81.2 | > 10000 |
| NC(=O)C1CCCCN1C(=O)c1cnc(N2CC(F)(F)C2)c(OCC2CC2)n1 (centres unmarked) [Example 33, 1-[6-Cyclopropylmethoxy-5-(3,3-difluoro-azetidin-1-yl)-pyrazine-2-carbonyl]-piperidine-2-carboxylic acid amide] | 330 | > 10000 |
| CC1(C)CC(C(N)=O)N(C(=O)c2cnc(C3CC3)c(OCC3CC3)n2)C1 (centres unmarked) [Example 34, 1-(5-Cyclopropyl-6-cyclopropylmethoxy-pyrazine-2-carbonyl)-4,4-dimethyl-pyrrolidine-2-carboxylic acid amide] | 1.6 | > 10000 |
